Assay results: US12371454B2, “Cyclic peptide compound having Kras inhibitory action” (priority 2019, dated 2025)
Starred links: 1 amine or outer side, 2 acyl side, 3 side chain; linkers in the order of their positions; H or OH if unused. Positions of bridges follow the written chain, without caps; N, C: chain ends. Non-standard residues stand in square brackets, D forms with d. Residues, ends and D or L forms follow the SMILES beside them. *: point of attachment. hPhe(3-Cl-4-CF3) = N[C@@H](CCc1ccc(C(F)(F)F)c(Cl)c1)C(=O)O; NMePhe(3-CF3) = CN[C@@H](Cc1cccc(C(F)(F)F)c1)C(=O)O; NMePhe(4-Me) = CN[C@@H](Cc1ccc(C)cc1)C(=O)O; NMedβ3hAla = C[C@H](CC(=O)[*:2])N(C)[*:1]; NMeGly(cPent) = CN[C@H](C(=O)O)C1CCCC1; X21 = O=C(CN(c1cccc(Cl)c1)[*:1])[*:2]; NMeGly(cBu) = CN[C@H](C(=O)O)C1CCC1; NMeCha = CN[C@@H](CC1CCCCC1)C(=O)O; X2 = C=CC[C@](C)(N[*:1])C(=O)[*:2]; Ala(cPr) = N[C@@H](CC1CC1)C(=O)O; NMeCba = CN[C@@H](CC1CCC1)C(=O)O; NMeChg = CN[C@H](C(=O)O)C1CCCCC1; NMeF = CN[C@@H](Cc1ccccc1)C(=O)O; NMeI = CC[C@H](C)[C@H](NC)C(=O)O; Piperidide(4-Me) = CC1CCN(*)CC1; NMeD = CN[C@@H](CC(=O)O)C(=O)O; AllylGly = C=CC[C@H](N)C(=O)O; NMeL = CN[C@@H](CC(C)C)C(=O)O; NMeNle = CCCC[C@H](NC)C(=O)O; NMeV = CN[C@H](C(=O)O)C(C)C; d(β3hA) = C[C@@H](N)CC(=O)O; NMeA = CN[C@@H](C)C(=O)O; NMeAib = CNC(C)(C)C(=O)O; Piperidide = C1CCN(*)CC1; dNMeA = CN[C@H](C)C(=O)O; Ac5c = NC1(C(=O)O)CCCC1; Aze = O=C(O)[C@@H]1CCN1; X1 = FC1(F)CN(*)CC1(F)F; Cyclopropyl = C1CC1*; X14 = CC1(C)CCN(*)C1; Sar = CNCC(=O)O

Columns and labels:
[1] = tested on: Human pancreatic cancer cell line AsPC-1; assay: Measurement of AsPC-1 cell growth inhibition (AsPC-1 CGI); assay type: cell-based; settings: 96 h
Summary of the method: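 AsPC-1 cells in 15% FBS RPMI-1640 were exposed to test compound for 96 hours at 37° C, with CellTiter-Glo as endpoint.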

[2] = molecular target: T1, Kras and SOS1 (biotin-tagged human Kras loaded with GDP, His-tagged human SOS1) (Homo sapiens, UniProt P01116, G12D); assay: Protein-protein interaction inhibition between Kras and SOS1 (KrasGl2D-SOS PPI) using AlphaScreen; assay type: binding; settings: AlphaScreen; biotin-tagged human Kras loaded with GDP, His-tagged human SOS1; read-out: KRAS G12D-SOS PPI IC50
T1 construct: made in house; host or cells: E. coli (stated for Kras only)
Summary of the method: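 Binding between SOS1 and Kras is detected as bead-proximity luminescence: illuminate Ni-conjugated donors (680 nm), collect 520-620 nm emission from streptavidin-conjugated acceptors; Kras carries biotin and GDP loaded after purification, SOS1 carries a His tag.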

T1 sequence (P01116 1-188 isoform P01116-2 G12D): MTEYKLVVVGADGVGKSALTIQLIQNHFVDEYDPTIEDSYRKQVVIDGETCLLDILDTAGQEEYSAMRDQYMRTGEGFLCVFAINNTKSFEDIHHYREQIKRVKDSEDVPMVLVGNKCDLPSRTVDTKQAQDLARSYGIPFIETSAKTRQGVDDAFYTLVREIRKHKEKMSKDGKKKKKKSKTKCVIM

Row | Compound | IC50 [1] [nM] | IC50 [2] [nM]
1 | CC[C@H](C)[C@@H]1NC(=O)[C@H](C)N(C)C(=O)C[C@@H](C(=O)N2CCCCC2)N(C)C(=O)[C@H](C2CCC2)N(C)C(=O)C(C)(C)N(C)C(=O)CN(c2cccc(Cl)c2)C(=O)[C@H](CCc2ccc(C(F)(F)F)c(Cl)c2)NC(=O)CN(C)C(=O)[C@H](C2CCC2)N(C)C(=O)[C@@H]2CCN2C(=O)[C@H](C)N(C)C1=O [Compound 2146] ([NMeA]I[NMeA][Aze][NMeGly(cBu)][Sar][hPhe(3-Cl-4-CF3)][X21][NMeAib][NMeGly(cBu)][NMeD]-Piperidide; lactam N-11) | > 500 | 5.1
2 | C=CC[C@@H]1NC(=O)[C@H](CC(C)C)N(C)C(=O)C[C@@H](C(=O)N2CCCCC2)N(C)C(=O)[C@H](C2CCCCC2)N(C)C(=O)C2(CCCC2)NC(=O)[C@@H]2CCCN2C(=O)[C@H](CCc2ccc(C(F)(F)F)c(Cl)c2)NC(=O)CN(C)C(=O)[C@H](CC2CCCCC2)N(C)C(=O)CN(C)C(=O)CN(C)C1=O [Compound 164] ([NMeL][AllylGly][Sar][Sar][NMeCha][Sar][hPhe(3-Cl-4-CF3)]P[Ac5c][NMeChg][NMeD]-Piperidide; lactam N-11) | 100 to 500 | 2.2
3 | CC[C@H](C)[C@@H]1NC(=O)[C@H](CC(C)C)N(C)C(=O)C[C@@H](C)NC(=O)[C@H]([C@@H](C)CC)N(C)C(=O)C2(CCCC2)NC(=O)[C@@H]2CCCN2C(=O)[C@H](CCc2ccc(C(F)(F)F)c(Cl)c2)NC(=O)CN(C)C(=O)[C@H](Cc2ccc(C)cc2)N(C)C(=O)CN(C)C(=O)CN(C)C1=O [Compound 1774] (cyclo([Ac5c][NMeI][d(β3hA)][NMeL]I[Sar][Sar][NMePhe(4-Me)][Sar][hPhe(3-Cl-4-CF3)]P)) | 100 to 500 | 0.84
4 | CC[C@H](C)[C@@H]1NC(=O)[C@H](CC(C)C)N(C)C(=O)C[C@@H](C(=O)N2CCC(C)CC2)N(C)C(=O)[C@H](C2CCCCC2)N(C)C(=O)C2(CCCC2)NC(=O)[C@@H]2CCCN2C(=O)[C@H](CCc2ccc(C(F)(F)F)c(Cl)c2)NC(=O)CN(C)C(=O)[C@H](CC2CCCCC2)N(C)C(=O)CN(C)C(=O)CN(C)C1=O [Compound 1347] ([NMeL]I[Sar][Sar][NMeCha][Sar][hPhe(3-Cl-4-CF3)]P[Ac5c][NMeChg][NMeD]-{Piperidide(4-Me)}; lactam N-11) | 100 to 500 | 1.3
5 | CC[C@H](C)[C@@H]1NC(=O)[C@H](C)N(C)C(=O)C[C@@H](C)N(C)C(=O)[C@H](C(C)C)N(C)C(=O)C2(CCCC2)NC(=O)[C@@H]2CCCN2C(=O)[C@H](CCc2ccc(C(F)(F)F)c(Cl)c2)NC(=O)[C@@H](C)N(C)C(=O)[C@H](CC2CCCCC2)N(C)C(=O)[C@@H]2CCCN2C(=O)CN(C)C1=O [Compound 1784] (cyclo([Ac5c][NMeV][NMedβ3hAla][NMeA]I[Sar]P[NMeCha][dNMeA][hPhe(3-Cl-4-CF3)]P)) | 50 to 100 | 11
6 | CC[C@H](C)[C@@H]1NC(=O)[C@H](CC(C)C)N(C)C(=O)C[C@@H](C(=O)N2CCC(C)(C)C2)N(C)C(=O)[C@H](C(C)C)N(C)C(=O)C2(CCCC2)NC(=O)[C@@H]2CCCN2C(=O)[C@H](CCc2ccc(C(F)(F)F)c(Cl)c2)NC(=O)CN(C)C(=O)[C@H](CC2CCCCC2)N(C)C(=O)[C@@H]2CCN2C(=O)[C@H](C)N(C)C1=O [Compound 1323] ([NMeL]I[NMeA][Aze][NMeCha][Sar][hPhe(3-Cl-4-CF3)]P[Ac5c][NMeV][NMeD]-X14; lactam N-11) | 100 to 500 | 4.3
7 | CC(C)C[C@H]1C(=O)N[C@@H](COC2CC2)C(=O)N(C)CC(=O)N(C)CC(=O)N(C)[C@@H](CC2CCCCC2)C(=O)N(C)CC(=O)N[C@@H](CCc2ccc(C(F)(F)F)c(Cl)c2)C(=O)N2CCC[C@H]2C(=O)NC2(CCCC2)C(=O)N(C)[C@@H](C2CCCCC2)C(=O)N(C)[C@H](C(=O)N2CCCCC2)CC(=O)N1C [Compound 1766] ([NMeL]S(Cyclopropyl)[Sar][Sar][NMeCha][Sar][hPhe(3-Cl-4-CF3)]P[Ac5c][NMeChg][NMeD]-Piperidide; lactam N-11) | 100 to 500 | 3.6
8 | CC[C@H](C)[C@@H]1NC(=O)[C@H](CC(C)C)N(C)C(=O)C[C@@H](C)N(C)C(=O)[C@H](C(C)C)N(C)C(=O)C2(CCCC2)NC(=O)[C@@H]2CCCN2C(=O)[C@H](CCc2ccc(C(F)(F)F)c(Cl)c2)NC(=O)CN(C)C(=O)[C@H](Cc2cccc(C(F)(F)F)c2)N(C)C(=O)CN(C)C(=O)CN(C)C1=O [Compound 1572] (cyclo([Ac5c][NMeV][NMedβ3hAla][NMeL]I[Sar][Sar][NMePhe(3-CF3)][Sar][hPhe(3-Cl-4-CF3)]P)) | 50 to 100 | 9.8
9 | CC[C@H](C)[C@@H]1NC(=O)[C@H](CC(C)C)N(C)C(=O)C[C@@H](C(=O)N(C)C)N(C)C(=O)[C@H]([C@@H](C)CC)N(C)C(=O)C2(CCCC2)NC(=O)[C@H](Cc2ccccc2)N(C)C(=O)[C@H](CCc2ccc(C(F)(F)F)c(Cl)c2)NC(=O)CN(C)C(=O)[C@H](Cc2ccc(C)cc2)N(C)C(=O)[C@@H]2CCN2C(=O)[C@H](C)N(C)C1=O [Compound 958] ([NMeL]I[NMeA][Aze][NMePhe(4-Me)][Sar][hPhe(3-Cl-4-CF3)][NMeF][Ac5c][NMeI][NMeD]-NMe2; lactam N-11) | 20 to 50 | 2.1
10 | CC[C@H](C)[C@@H]1NC(=O)[C@H](CC(C)C)N(C)C(=O)C[C@@H](C(=O)N2CC(F)(F)C(F)(F)C2)N(C)C(=O)[C@H](C2CCCCC2)N(C)C(=O)C2(CCCC2)NC(=O)[C@@H]2CCCN2C(=O)[C@H](CCc2ccc(C(F)(F)F)c(Cl)c2)NC(=O)CN(C)C(=O)[C@H](CC2CCCCC2)N(C)C(=O)CN(C)C(=O)CN(C)C1=O [Compound 1207] ([NMeL]I[Sar][Sar][NMeCha][Sar][hPhe(3-Cl-4-CF3)]P[Ac5c][NMeChg][NMeD]-X1; lactam N-11) | 100 to 500 | 2.7
11 | CC[C@H](C)[C@@H]1NC(=O)[C@H](CC(C)C)N(C)C(=O)C[C@@H](C(=O)N(C)C)N(C)C(=O)[C@H](C2CCCC2)N(C)C(=O)C2(CCCC2)NC(=O)[C@H](Cc2ccccc2)N(C)C(=O)[C@H](CCc2ccc(C(F)(F)F)c(Cl)c2)NC(=O)CN(C)C(=O)[C@H](CC2CCCCC2)N(C)C(=O)[C@@H]2CCN2C(=O)[C@H](C)N(C)C1=O [Compound 854] ([NMeL]I[NMeA][Aze][NMeCha][Sar][hPhe(3-Cl-4-CF3)][NMeF][Ac5c][NMeGly(cPent)][NMeD]-NMe2; lactam N-11) | 100 to 500 | 11
12 | CC[C@H](C)[C@@H]1NC(=O)[C@H](CC(C)C)N(C)C(=O)C[C@@H](C(=O)N2CCCCC2)N(C)C(=O)[C@H](C2CCCCC2)N(C)C(=O)C2(CCCC2)NC(=O)[C@@H]2CCCN2C(=O)[C@H](CCc2ccc(C(F)(F)F)c(Cl)c2)NC(=O)CN(C)C(=O)[C@H](CC2CCC2)N(C)C(=O)CN(C)C(=O)CN(C)C1=O [Compound 1817] ([NMeL]I[Sar][Sar][NMeCba][Sar][hPhe(3-Cl-4-CF3)]P[Ac5c][NMeChg][NMeD]-Piperidide; lactam N-11) | 100 to 500 | 1.4
13 | CC[C@H](C)[C@@H]1NC(=O)[C@H](C2CCCCC2)N(C)C(=O)C[C@@H](C(=O)N2CCCCC2)N(C)C(=O)[C@H](C2CCCCC2)N(C)C(=O)C2(CCCC2)NC(=O)[C@@H]2CCCN2C(=O)[C@H](CCc2ccc(C(F)(F)F)c(Cl)c2)NC(=O)CN(C)C(=O)[C@H](CC2CCCCC2)N(C)C(=O)CN(C)C(=O)CN(C)C1=O [Compound 849] ([NMeChg]I[Sar][Sar][NMeCha][Sar][hPhe(3-Cl-4-CF3)]P[Ac5c][NMeChg][NMeD]-Piperidide; lactam N-11) | 100 to 500 | 1.9
14 | CCCC[C@H]1C(=O)N[C@@H]([C@@H](C)CC)C(=O)N(C)CC(=O)N(C)CC(=O)N(C)[C@@H](CC2CCCCC2)C(=O)N(C)CC(=O)N[C@@H](CCc2ccc(C(F)(F)F)c(Cl)c2)C(=O)N2CCC[C@H]2C(=O)NC2(CCCC2)C(=O)N(C)[C@@H](C2CCCCC2)C(=O)N(C)[C@H](C(=O)N2CCCCC2)CC(=O)N1C [Compound 1740] ([NMeNle]I[Sar][Sar][NMeCha][Sar][hPhe(3-Cl-4-CF3)]P[Ac5c][NMeChg][NMeD]-Piperidide; lactam N-11) | 50 to 100 | 0.79
15 | C=CC[C@]1(C)NC(=O)[C@@H]2CCCN2C(=O)[C@H](CCc2ccc(C(F)(F)F)c(Cl)c2)NC(=O)CN(C)C(=O)[C@H](CC2CCCCC2)N(C)C(=O)CN(C)C(=O)CN(C)C(=O)[C@H]([C@@H](C)CC)NC(=O)[C@H](CC(C)C)N(C)C(=O)C[C@@H](C)N(C)C(=O)[C@H](C(C)C)N(C)C1=O [Compound 644] (cyclo(I[Sar][Sar][NMeCha][Sar][hPhe(3-Cl-4-CF3)]P[X2][NMeV][NMedβ3hAla][NMeL])) | 100 to 500 | 17
16 | CC(C)C[C@H]1C(=O)N[C@@H](CC2CC2)C(=O)N(C)CC(=O)N(C)CC(=O)N(C)[C@@H](CC2CCCCC2)C(=O)N(C)CC(=O)N[C@@H](CCc2ccc(C(F)(F)F)c(Cl)c2)C(=O)N2CCC[C@H]2C(=O)NC2(CCCC2)C(=O)N(C)[C@@H](C2CCCCC2)C(=O)N(C)[C@H](C(=O)N2CCCCC2)CC(=O)N1C [Compound 689] ([NMeL][Ala(cPr)][Sar][Sar][NMeCha][Sar][hPhe(3-Cl-4-CF3)]P[Ac5c][NMeChg][NMeD]-Piperidide; lactam N-11) | 100 to 500 | 2.1
17 | CC[C@H](C)[C@@H]1NC(=O)[C@H]([C@@H](C)CC)N(C)C(=O)C[C@@H](C(=O)N2CCCCC2)N(C)C(=O)[C@H](C2CCCCC2)N(C)C(=O)C2(CCCC2)NC(=O)[C@@H]2CCCN2C(=O)[C@H](CCc2ccc(C(F)(F)F)c(Cl)c2)NC(=O)CN(C)C(=O)[C@H](CC2CCCCC2)N(C)C(=O)CN(C)C(=O)CN(C)C1=O [Compound 1671] ([NMeI]I[Sar][Sar][NMeCha][Sar][hPhe(3-Cl-4-CF3)]P[Ac5c][NMeChg][NMeD]-Piperidide; lactam N-11) | 50 to 100 | 1.1
